For assay [1], the system named is HCT-116. Description: cells. To be noted: Homo sapiens, HCT-116, 48 h.
Description: Growth inhibition of human HCT116 cells after 48 hrs by MTT assay
Assay [2] concerns HCT-116. Description: Growth inhibition of human HCT116 cells overexpressing PI3Kalpha H1047R mutant after 48 hrs by MTT assay. Format: functional, cell-based. To be noted: HCT-116, 48 h. (Tetrazolium assays rely on reduction of a dye to a coloured formazan, in cell work by metabolically active cells.)
Assay [3] concerns HCT-116. In words: Inhibition of Akt expression in human HCT116 cells at 10 uM by immunoblot analysis. Format: functional, cell-based. For orientation: Immunoblotting shows a protein as a band on a membrane.
Assay [4] concerns Phosphatidylinositol 4,5-bisphosphate 3-kinase catalytic subunit alpha isoform (Homo sapiens), P42336 [H1047R]. Description: Inhibition of PI3Kalpha H1047R mutant in human HCT116 cells using [32P]ATP at 25 uM after 10 mins. Format: cell-based. The conditions noted are these: HCT-116.
In assay [5] the target is Phosphatidylinositol 4,5-bisphosphate 3-kinase catalytic subunit alpha isoform (Homo sapiens) (UniProt P42336). In words: Inhibition of PI3Kalpha in human HCT116 cells using [32P]ATP at 25 uM after 10 mins. The class given is cell-based. To be noted: HCT-116.
For assay [6], the system named is HCT-116. Description: Induction of apoptosis in human HCT116 cells assessed DNA fragmentation at 25 uM after 48 hrs by ELISA relative to control. The class given is functional.
Assay [7] relates to Phosphatidylinositol 4,5-bisphosphate 3-kinase catalytic subunit alpha isoform (Homo sapiens), P42336 [H1047R]. Description: Inhibition of PI3Kalpha H1047R mutant in human HCT116 cells assessed as inhibition of Akt Ser473 phosphorylation at 25 uM by immunoblot analysis. The class given is cell-based. To be noted: HCT-116.
Assay [8] concerns the target Phosphatidylinositol 4,5-bisphosphate 3-kinase catalytic subunit alpha isoform (Homo sapiens) (UniProt P42336). In words: Inhibition of PI3Kalpha in human HCT116 cells assessed as inhibition of Akt Ser473 phosphorylation at 25 uM by immunoblot analysis. To be noted: HCT-116. The class given is cell-based.
Assay [9] concerns HCT-116. Description: Growth inhibition of human HCT116 cells overexpressing PI3Kalpha after 48 hrs by MTT assay. Format: functional, cell-based. To be noted: HCT-116, 48 h.
Assay [10] relates to HCT-116. In words: Induction of apoptosis in human HCT116 cells overexpressing PI3Kalpha assessed DNA fragmentation at 25 uM after 48 hrs by ELISA relative to control. Format: functional. (In general: ELISA stands for enzyme-linked immunosorbent assay.)
Assay [11] relates to HCT-116. In words: Induction of apoptosis in human HCT116 cells overexpressing PI3Kalpha H1047R mutant assessed DNA fragmentation at 25 uM after 48 hrs by ELISA relative to control. The class given is functional.
Assay [12] deals with Phosphatidylinositol 4,5-bisphosphate 3-kinase catalytic subunit alpha isoform (Homo sapiens), P42336 [H1047R]. Description: Inhibition of PI3Kalpha H1047R mutant in human HCT116 cells assessed as inhibition of Akt Ser473 phosphorylation at 10 uM by immunoblot analysis. The class given is cell-based. The conditions noted are these: HCT-116.
The target of assay [13] is Phosphatidylinositol 4,5-bisphosphate 3-kinase catalytic subunit alpha isoform (Homo sapiens) (UniProt P42336). In words: Inhibition of PI3Kalpha in human HCT116 cells assessed as inhibition of Akt Ser473 phosphorylation at 10 uM by immunoblot analysis. Format: cell-based. The conditions noted are these: HCT-116.
For assay [14], the system named is Phosphatidylinositol 4,5-bisphosphate 3-kinase catalytic subunit alpha isoform (Homo sapiens), P42336 [H1047R]. In words: Inhibition of PI3Kalpha H1047R mutant in human HCT116 cells using [32P]ATP at 10 uM after 10 mins. The class given is cell-based. To be noted: HCT-116.
Assay [15] deals with Phosphatidylinositol 4,5-bisphosphate 3-kinase catalytic subunit alpha isoform (Homo sapiens) (UniProt P42336). Description: Inhibition of PI3Kalpha in human HCT116 cells using [32P]ATP at 10 uM after 10 mins. The class given is cell-based. To be noted: HCT-116.

Activity calls are given as the source filed them. The calls are words filed in the database; no cut-off is given here.

Phosphatidylinositol 4,5-bisphosphate 3-kinase catalytic subunit alpha isoform (Homo sapiens), P42336 [H1047R], sequence (P42336 whole entry H1047R, canonical isoform): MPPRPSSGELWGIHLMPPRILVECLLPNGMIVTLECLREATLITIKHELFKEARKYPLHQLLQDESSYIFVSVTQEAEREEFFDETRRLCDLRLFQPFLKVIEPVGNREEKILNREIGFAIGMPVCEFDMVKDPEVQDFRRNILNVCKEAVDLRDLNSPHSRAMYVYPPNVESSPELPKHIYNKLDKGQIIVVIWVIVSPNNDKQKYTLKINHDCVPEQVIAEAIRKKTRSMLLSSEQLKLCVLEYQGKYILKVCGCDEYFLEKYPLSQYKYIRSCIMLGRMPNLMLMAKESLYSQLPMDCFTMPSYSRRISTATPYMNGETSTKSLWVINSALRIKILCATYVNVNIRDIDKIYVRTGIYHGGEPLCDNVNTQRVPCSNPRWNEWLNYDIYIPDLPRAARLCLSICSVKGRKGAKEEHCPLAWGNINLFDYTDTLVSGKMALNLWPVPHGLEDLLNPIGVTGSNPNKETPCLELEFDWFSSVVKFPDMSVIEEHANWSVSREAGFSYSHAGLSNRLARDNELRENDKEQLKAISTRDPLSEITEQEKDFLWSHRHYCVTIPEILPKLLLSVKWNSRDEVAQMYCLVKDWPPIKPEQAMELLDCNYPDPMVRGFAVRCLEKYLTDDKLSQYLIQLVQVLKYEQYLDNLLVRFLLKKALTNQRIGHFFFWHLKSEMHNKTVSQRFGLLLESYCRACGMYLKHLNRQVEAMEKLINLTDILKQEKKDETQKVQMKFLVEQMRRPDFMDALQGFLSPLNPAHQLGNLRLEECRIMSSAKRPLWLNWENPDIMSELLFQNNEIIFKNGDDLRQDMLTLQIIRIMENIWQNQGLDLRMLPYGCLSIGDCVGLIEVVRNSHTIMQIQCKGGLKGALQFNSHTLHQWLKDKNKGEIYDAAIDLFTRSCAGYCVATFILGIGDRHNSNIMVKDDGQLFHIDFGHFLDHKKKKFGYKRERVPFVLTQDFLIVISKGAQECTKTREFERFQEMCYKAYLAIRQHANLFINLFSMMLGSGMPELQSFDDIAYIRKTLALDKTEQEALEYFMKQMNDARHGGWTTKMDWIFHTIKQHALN
Phosphatidylinositol 4,5-bisphosphate 3-kinase catalytic subunit alpha isoform (Homo sapiens), sequence (P42336 whole entry, the tested form may be a part, canonical isoform): as the sequence (P42336 whole entry H1047R, canonical isoform) above, with R1047H counted along it

In general, IC50 refers to the point on the concentration scale where inhibition reaches its midpoint. A lower IC50 goes with greater potency. Take `O=C(NCc1ccccc1)c1c(O)nc2ccccc2c1O`: the IC50 in the assay with HCT-116 [1] stood at 1.8 µM; in the assay with HCT-116 [2] it was 0.73 µM; in the assay on HCT-116 [9], 1.1 µM. Also, the inhibition result in the assay on HCT-116 [3] is “inactive”. Also, the inhibition result in assay [4], in assay [5], in [7] and in assay [8] was “Active” in each case. Moreover, the figures for the “fold change (FC)” value with HCT-116 [6], in the assay with HCT-116 [10] and in the assay with HCT-116 [11] were 2.9, 3.2 and 11, respectively.
In the case of `COc1ccc(C(=O)c2ccccc2C(=O)O)c(O)c1`, the half-maximal inhibitory concentration (IC50) with HCT-116 [1] turned out to be 13 µM; with HCT-116 [2], 18 µM; with HCT-116 [9], 31 µM. Moreover, in the assay on HCT-116 [3], the inhibition entry is “inactive”. Also, the inhibition result in assay [4], in [5], in assay [7] and in [8] was “Active” in each case. Moreover, the “fold change (FC)” value came to 1.8 with HCT-116 [6], 1.3 with HCT-116 [10] and 3 in the assay on HCT-116 [11].
As for `O=c1c(O)c(-c2ccc(O)c(O)c2)oc2cc(O)cc(O)c12` [QUERCETIN], the IC50 turned out to be 6.7 µM in the assay with HCT-116 [1], 5.7 µM in the assay with HCT-116 [2] and 23 µM in the assay on HCT-116 [9]. Besides, the inhibition entry in the assay with HCT-116 [3] is “inactive”. The inhibition result in assay [4], in [5], in assay [7] and in [8] was “Active” throughout. Besides, the “fold change (FC)” value in the assay on HCT-116 [6] is recorded as 1; in the assay with HCT-116 [10] it was 2.5; in the assay on HCT-116 [11] it was 4.
`O=c1cc(N2CCOCC2)oc2c(-c3ccccc3)cccc12` [LY-294002]: the inhibition entry in assay [12], in assay [13], in assay [14] and in assay [15] was “Active” each time. Besides, the inhibition result in the assay with HCT-116 [3] is “inactive”. Moreover, the results for the “fold change (FC)” value in the assay on HCT-116 [6], in the assay with HCT-116 [10] and in the assay with HCT-116 [11] were 3.8, 8.5 and 8.6, respectively.
Consider `Cc1cc(O)c2c(c1)C(=O)c1cc(O)cc(O)c1C2=O` [EMODIN], for which the IC50 with HCT-116 [1] came out at 6.2 µM; in the assay with HCT-116 [2] it was 3.8 µM; in the assay on HCT-116 [9] it was 5.3 µM. Further, the inhibition result (in assay [12]; in the assay with HCT-116 [3]; in [13]; in assay [14]; in assay [15]) was “Active” throughout. Besides, the “fold change (FC)” value in the assay on HCT-116 [6] worked out at 8.6; in the assay on HCT-116 [10], 12; in the assay with HCT-116 [11], 13.
In the case of `O=c1c(O)c(-c2cc(O)c(O)c(O)c2)oc2cc(O)cc(O)c12` [MYRICETIN], the inhibition entry in the assay with HCT-116 [3] is “inactive”. In addition, the inhibition entry in [4], in [5], in [7] and in assay [8] was “Active” each time.

Values taken from ChEMBL document CHEMBL1938320, “Biological evaluation and docking studies of recently identified inhibitors of phosphoinositide-3-kinases” (Bioorg Med Chem Lett, 2012).
